Data on four compounds can be found in article PMC9648375, “Identification of the first-in-class dual inhibitors of human DNA topoisomerase IIα and indoleamine-2,3-dioxygenase 1 (IDO 1) with strong anticancer properties” (Journal of Enzyme Inhibition and Medicinal Chemistry, 2022).

For one experiment, the system named is A375 (melanoma cells). The experiment is described as follows: BrdU assay. It is filed as cell-based, human. The following applies: for IC50: Homo sapiens, A-375, A375, BrdU, 24 h, read-out: IC50 ± SD, antiproliferative activity. Here is the method:
(§1) Since the inhibition of human DNA topoisomerase II should result in decreased proliferation of cancer cells, compounds 1-3 were tested using BrdU assay against a panel of cancer cell lines, including MCF-7 (estrogen-dependent human breast cancer cells), MDA-MB-231 (estrogen-independent human breast cancer cells), SCC-25 (squamous cell carcinoma of the tongue), FaDu (squamous cell carcinoma of the pharynx), A549 (human lung carcinoma), AGS (human gastric adenocarcinoma), LS-180, HT-29 (colon cancer cell lines), T98G (glioblastoma cells), and A375 (melanoma cells). Human normal skin fibroblasts (CRL-2072) were also used as a reference cell line. The BrdU assay allows quantification of cell proliferation since it measures incorporation of thymidine analogue (BrdU) during DNA replication. […] However, although the antiproliferative effect caused by 3 was mostly weaker (except for A549 and A375) than observed for 1, but the former compound was also characterised by lower toxicity against human normal cells. It results in selectivity index approaching 125 and 57, when it comes to lung cancer (A549) and melanoma cells (A375), respectively.
Cytotoxicity of the synthesised compounds were examined against a panel of the cancer cell lines, MCF-7 (estrogen-dependent human breast cancer cells), MDA-MB-231 (oestrogen-independent human breast cancer cells), SCC- 25 (squamous cell carcinoma of the tongue), FaDu (squamous cell carcinoma of the pharynx), A- 549 (human lung carcinoma), AGS (human gastric adenocarcinoma), LS-180, HT-29 (colon cancer cell lines), T98G (glioblastoma cells), A375 (melanoma cells). Human embryonic kidney (HEK-293) cells and human normal skin fibroblasts (CRL-2072) were used as reference cell lines. The investigated cell lines were obtained from American Type Culture Collection (ATCC; Manassas, VA, USA). A375, MCF-7, MDA-MB-231, T98G cells were cultured in Dulbecco’s Modified Eagle’s Medium (DMEM) (Sigma Aldrich, St. Louis, MO, USA) supplemented with 10% heat inactivated foetal bovine serum (FBS), penicillin (100 U/mL), and streptomycin (100 μg/mL). SCC-25 cells were cultured in 1:1 mixture of Dulbecco’s modified Eagle’s medium and Ham’s F12 Medium (Sigma Aldrich, St. Louis, MO, USA) supplemented with 400 ng/ml hydrocortisone, 10% FBS, penicillin (100 U/mL), and streptomycin (100 μg/mL). A549 and AGS cells were maintained in F-12K Medium (Sigma Aldrich, St. Louis, MO, USA). LS-180 and FaDu cells were cultured in Eagle’s Minimum Essential Medium. HT-29 cells were maintained in McCoy’s 5 A Medium (Sigma Aldrich, St. Louis, MO, USA) supplemented with 10%FBS, penicillin (100 U/mL), and streptomycin (100 μg/mL). All the cells were maintained at 37 °C in a humidified atmosphere of 5% CO2.
The BrdU assay was performed to determine the effect of synthesised compounds on the proliferation of cancer cells. BrdU assay indicates the rate of incorporation of 5′-bromo-2′-deoxy-uridine (BrdU) during DNA biosynthesis. In brief, cells were plated in 96-well plates (NUNC, Roskilde, Denmark) at the density of 3 × 10^4 cells/mL. […] Cell proliferation was examined after 24 h and 48 h of incubation according to the manufacturer’s protocol (Cell Proliferation ELISA BrdU, Roche Diagnostics GmbH, Penzberg,)Germany).
For orientation: Incorporation of labelled thymidine or its analogues reports DNA synthesis.

Experiment [1] has as its target T1, indoleamine-2,3-dioxygenase 1 (IDO 1) (Homo sapiens, UniProt P14902).
T1 construct: purchased BPS Bioscience, Inc. (San Diego, CA, USA)
The experiment in a line: Universal IDO1/IDO2/TDO Inhibitor Screening Assay Kit. As to conditions: fixed dose of 50 µg/ml; read-out: IDO 1 inhibition (%) ± SD. It is filed as biochemical.
Procedure: Inhibitory effects of the investigated compounds were determined using Universal IDO1/IDO2/TDO Inhibitor Screening Assay Kit from BPS Bioscience, Inc. (San Diego, CA, USA). This colorimetric assay is based on the measurement of the ability of IDO1, IDO2 and TDO to convert L-tryptophan into N-formylkynurenine (NFK). The experiments were performed according to the manufacturer’s guidelines. The final concentration of the compounds in the reaction mixture was 50 µg/mL. The amount of NFK was measured spectrophotometrically at 320 nm using Epoch BioTek microplate reader (BioTek Instruments, Inc., Winooski, VT, USA). The samples were run in triplicate and the results were expressed as mean ± SD.

For experiment [2], the system named is panel of cancer cell lines. The experiment in a line: BrdU assay, whole panel. It is filed as cell-based, human. The following applies: cell line not named, highest value. Here is the method: as §1, with “respectively. […]” for “respectively.”
In experiment [3] the target is T2, human DNA topoisomerase IIα (Homo sapiens, UniProt P11388).
T2 construct: purchased Inspiralis Ltd, Norwich, UK
The experiment in a line: Stabilisation of covalent DNA-enzyme cleavage complex (Topoisomerase II Drug Screening Kit). It is filed as biochemical. The following applies: 50 µM (Figure S4), linear DNA cleavage intermediate. As to the method:
As relaxation of supercoiled DNA (scDNA) is one of numerous functions of topoisomerase IIα, so the appearance/disappearance of relaxed DNA bands during agarose gel electrophoresis can be used to identify compounds that inhibit the enzyme.
Determination of the inhibitory effect of compounds 1-10 against human topoisomerase Iiα was performed using Human Topoisomerase II Relaxation Assay (Inspiralis Ltd, Norwich, UK) and Topoisomerase II Drug Screening Kit (TopoGEN Inc., Buena Vista, CO, USA) following the manufacturer’s instructions. Briefly, the increased concentrations of the compounds were mixed with the reaction mixture, incubated according to the protocol and, after reaction termination, the samples were analysed by electrophoresis using 1% agarose gel containing […] of ethidium bromide in Tris-Acetate-EDTA (TAE) buffer. Visualisation of the bands was performed using an enhanced chemiluminescence system (Syngene G:BOX Chemi XT4, Cambridge, UK). For the quantitative determination of topoisomerase II inhibition, images were densitometrically scanned.
topoII + compound 4 (100 µM); lane 7: scDNA + topoII + compound 5 (100 µM); lane 8: scDNA + topoII
+ compound 6 (100µM); lane 9: scDNA + topoII + compound 7 (100 µM); lane 10: scDNA + topoII +
compound 8 (100µM); lane 11: scDNA + topoII + compound 9 (100µM); lane 12: scDNA + topoII +
Figure S4. […] Lane 1: scDNA; […]

≈ marks a conversion by molar mass, not a printed value.

T1 sequence (P14902 whole entry): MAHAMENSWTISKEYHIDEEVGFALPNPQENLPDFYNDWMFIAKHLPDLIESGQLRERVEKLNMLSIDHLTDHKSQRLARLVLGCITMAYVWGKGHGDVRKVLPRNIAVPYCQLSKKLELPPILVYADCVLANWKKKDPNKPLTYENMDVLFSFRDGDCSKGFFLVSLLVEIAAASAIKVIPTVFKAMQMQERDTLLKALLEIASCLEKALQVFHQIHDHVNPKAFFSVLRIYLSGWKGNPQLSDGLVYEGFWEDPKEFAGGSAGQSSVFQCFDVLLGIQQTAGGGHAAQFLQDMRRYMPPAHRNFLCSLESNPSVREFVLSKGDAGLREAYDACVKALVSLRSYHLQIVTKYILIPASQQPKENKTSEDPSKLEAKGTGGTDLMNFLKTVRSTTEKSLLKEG
T2 sequence (P11388 whole entry): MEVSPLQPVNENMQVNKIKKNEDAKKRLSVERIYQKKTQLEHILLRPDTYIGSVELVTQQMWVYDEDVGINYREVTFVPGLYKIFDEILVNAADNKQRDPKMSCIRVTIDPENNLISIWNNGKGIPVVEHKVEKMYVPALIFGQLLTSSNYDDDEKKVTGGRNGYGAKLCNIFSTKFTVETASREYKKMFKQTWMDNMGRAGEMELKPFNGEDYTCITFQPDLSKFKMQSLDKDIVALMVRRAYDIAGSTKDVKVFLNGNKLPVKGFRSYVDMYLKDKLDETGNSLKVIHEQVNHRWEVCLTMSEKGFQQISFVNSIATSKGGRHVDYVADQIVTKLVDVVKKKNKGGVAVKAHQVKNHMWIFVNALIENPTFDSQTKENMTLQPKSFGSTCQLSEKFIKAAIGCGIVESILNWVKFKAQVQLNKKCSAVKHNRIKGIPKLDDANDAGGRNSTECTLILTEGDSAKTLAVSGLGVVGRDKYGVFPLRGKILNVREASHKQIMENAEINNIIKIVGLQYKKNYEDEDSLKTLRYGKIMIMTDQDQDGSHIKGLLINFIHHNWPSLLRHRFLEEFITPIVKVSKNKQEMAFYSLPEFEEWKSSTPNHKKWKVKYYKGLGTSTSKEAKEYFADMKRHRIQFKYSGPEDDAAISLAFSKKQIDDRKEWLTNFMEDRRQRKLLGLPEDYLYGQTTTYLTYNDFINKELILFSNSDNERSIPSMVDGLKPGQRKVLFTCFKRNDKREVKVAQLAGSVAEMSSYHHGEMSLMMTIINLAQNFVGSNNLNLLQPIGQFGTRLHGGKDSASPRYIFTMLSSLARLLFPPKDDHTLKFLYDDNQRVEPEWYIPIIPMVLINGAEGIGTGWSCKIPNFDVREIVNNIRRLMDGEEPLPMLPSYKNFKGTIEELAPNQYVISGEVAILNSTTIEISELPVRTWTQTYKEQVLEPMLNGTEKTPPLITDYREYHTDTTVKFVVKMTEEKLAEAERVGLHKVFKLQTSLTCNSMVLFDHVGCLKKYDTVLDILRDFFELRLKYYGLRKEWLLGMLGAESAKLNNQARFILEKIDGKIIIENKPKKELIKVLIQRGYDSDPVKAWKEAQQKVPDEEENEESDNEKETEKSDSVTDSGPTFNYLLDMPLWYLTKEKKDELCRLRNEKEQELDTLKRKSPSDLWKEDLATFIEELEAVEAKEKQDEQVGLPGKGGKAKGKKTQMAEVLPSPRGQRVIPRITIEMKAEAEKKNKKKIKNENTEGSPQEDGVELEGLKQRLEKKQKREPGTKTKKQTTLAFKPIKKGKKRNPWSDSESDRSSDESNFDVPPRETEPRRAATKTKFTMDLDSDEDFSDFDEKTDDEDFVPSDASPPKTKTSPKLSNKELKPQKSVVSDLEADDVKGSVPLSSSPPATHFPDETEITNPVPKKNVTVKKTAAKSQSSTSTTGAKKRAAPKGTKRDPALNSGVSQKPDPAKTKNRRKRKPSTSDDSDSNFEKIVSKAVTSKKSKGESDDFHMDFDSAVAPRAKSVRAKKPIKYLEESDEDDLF

Broadly, the IC50 is the midpoint of a concentration-inhibition curve. A word on the inhibition: it is the share of the control response that was lost under treatment. Take `CC(C)c1cccc(C(C)C)c1NC(=S)NNC(=O)Cc1cccc2ccccc12` [Compound 1, 4-(2,6-Diisopropylphenyl)-1-[(naphth-1-yl)acetyl]thiosemicarbazide]: the IC50 in the experiment with A375 (melanoma cells) came out at 0.96 ± 0.03 µg/mL (≈ 2.29 µM). For the same compound, the inhibition at 50 µg/mL in experiment [1] worked out at 91.4 ± 1.82%. Further, the “antiproliferative activity, fold higher than that of etoposide” value in experiment [2] is on record as at most 90 fold.
On to `COc1cc([C@@H]2c3cc4c(cc3[C@@H](O[C@@H]3O[C@@H]5CO[C@@H](C)O[C@H]5[C@H](O)[C@H]3O)[C@H]3COC(=O)[C@H]23)OCO4)cc(OC)c1O` [Etoposide, etoposide, reference compound], for which the IC50 with A375 (melanoma cells) is 9.18 ± 0.15 µg/mL (≈ 15.6 µM). The “stabilisation of the covalent DNA-enzyme cleavage complex” value in experiment [3] is “able to stabilise the covalent DNA-enzyme cleavage complex”.
`O=C(NNC(=S)Nc1ccc(N=Nc2ccccc2)cc1)c1ccccc1[N+](=O)[O-]` [Compound 3, 4-(4-Phenylazophenyl)-1-(2-nitrobenzoyl)thiosemicarbazide]: in the experiment on A375 (melanoma cells) (BrdU assay, melanoma cells (A375)), the “selectivity index, A375 vs. human normal skin fibroblasts” value is around 57. Besides, in the experiment on A375 (melanoma cells), the IC50 turned out to be 0.56 ± 0.03 µg/mL (≈ 1.33 µM). In addition, the inhibition at 50 µg/mL in experiment [1] came out at 21.4 ± 1.05%.
Consider `O=C(Cc1cccc2ccccc12)NNC(=S)Nc1ccc(N=Nc2ccccc2)cc1` [Compound 2, 4-(4-Phenylazophenyl)-1-[(naphth-1-yl)acetyl]thiosemicarbazide], for which the IC50 with A375 (melanoma cells) was determined as 0.85 ± 0.04 µg/mL (≈ 1.93 µM). For the same compound, the inhibition at 50 µg/mL in experiment [1] was 41.4 ± 2.47%.
